From patent US20080262228A1, “Metabolites of 5-fluoro-8- quinoline and methods of preparation and uses thereof” (Wyeth, priority 2006, published 2008) come the findings set out here.

Structures can show the parent of a compound that is named as a salt.

Data set [1] has as its target T1, human 5-HT1A receptor (Homo sapiens, UniProt P08908).
T1 construct: expressed in transfected cells
T1 sequence (P08908 1-422): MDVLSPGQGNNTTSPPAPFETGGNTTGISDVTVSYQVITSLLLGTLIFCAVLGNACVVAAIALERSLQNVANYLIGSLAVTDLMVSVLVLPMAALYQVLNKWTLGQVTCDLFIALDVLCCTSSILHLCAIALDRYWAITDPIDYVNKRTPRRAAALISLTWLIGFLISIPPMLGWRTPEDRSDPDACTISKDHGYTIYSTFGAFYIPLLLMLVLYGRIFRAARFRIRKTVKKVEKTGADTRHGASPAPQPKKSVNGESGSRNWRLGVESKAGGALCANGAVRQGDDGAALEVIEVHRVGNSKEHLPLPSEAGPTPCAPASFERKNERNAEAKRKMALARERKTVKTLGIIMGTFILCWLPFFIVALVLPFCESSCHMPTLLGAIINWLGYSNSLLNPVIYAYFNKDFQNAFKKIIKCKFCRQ
Put plainly: [3H]-8-OH-DPAT displacement radioligand binding. The note with it: h5-HT1A.CHO cell membranes, read-out: Ki value for 5-HT1A affinity. Here is the method: (§1) A Ki value is reported. The in vitro functional activity of the compounds of this invention is determined by measuring the effect of the compound on forskolin-induced adenylate cyclase activity in the same cell line. 5-HT1A agonists, such as the full agonist 8-OH-DPAT, inhibit forskolin-induced adenylate cyclase activity, as measured by a reduction in cAMP levels. The compounds of this invention display agonist activity as shown by its ability to induce a decrease in cAMP levels. An EC50 value is reported and the maximum response of the test compound is reported as the percent of a full agonist response (the maximum response obtained with the full agonist 8-OH-DPAT=100%). This percent is expressed as an Emax value.
The PCR cloning of the human 5-HT1A receptor subtype from a human genomic library has been described previously (Chanda et al., Mol. Pharmacol., 43:516 (1993)). A stable Chinese hamster ovary cell line expressing the human 5-HT1A receptor subtype (h5-HT1A.CHO cells) was employed throughout this study. Cells were maintained in DMEM supplemented with 10% fetal calf serum, non-essential amino acids and penicillin/streptomycin.
Radioligand binding assays can be performed as described in Dunlop, J. et al., J. Pharmacol. and Toxicol. Methods 40: 47-55 (1998). […] Non-specific binding is determined in the presence of 10 μM 5HT. […]

The target of data set [2] is T1, human 5-HT1A receptor. Put plainly: Forskolin-induced adenylate cyclase (cAMP) functional assay in h5-HT1A.CHO cells. The data set is classed as cell-based. On the procedure:
as §1
The PCR cloning of the human 5-HT1A receptor subtype from a human genomic library has been described previously (Chanda et al., Mol. Pharmacol., 43:516 (1993)). A stable Chinese hamster ovary cell line expressing the human 5-HT1A receptor subtype (h5-HT1A.CHO cells) was employed throughout this study. […]
Measurements can be performed as described in Dunlop, J. et al., supra. […] Functional activity is assessed by treating the cells with forskolin (1 uM final concentration) followed immediately by test compound (6 different concentrations) for an additional 10 min. at 37° C. […]

Data set [3] can be described thus: Turnover to metabolites in cryopreserved hepatocytes. Conditions: hepatocytes, 20 μM. Here is the method:
Chromatographic analyses were performed with a Waters Alliance model 2695 HPLC system (Waters Corp., Milford, Mass.) that was equipped with a built-in autosampler. The column eluent was monitored with a model 996 diode array UV detector, set to monitor 250 nm, and a FloOne β Model A525 radioactivity flow detector (Perkin Elmer) with a 250 μL flow cell. Separation of the parent compound from metabolites was accomplished using a Discovery C18 column, 250×4.6 mm, 5 μm (Supelco, Bellefonte, Pa.) at an ambient temperature of approximately 20° C. Mobile phase A was 10 mM ammonium acetate (pH 4.5) and mobile phase B was acetonitrile and they were delivered at 1 mL/min using the gradient described in Table 10. The Ultima Flo M scintillant flow rate was 3 mL/min.
Flo-One analytical software (version 3.65) was utilized to integrate the radioactive peaks. Means and standard deviations were calculated using Microsoft Excel® 2000. Micromass MassLynx software (version 4.0, Waters Corp.) was used for control of LC/MS equipment and recording of data from LC/MS analyses.

Usually Ki stands for a dissociation constant, usually derived from enzyme kinetics or from competition with a known ligand. As a reminder, the EC50 is the concentration needed to bring the measured effect to its halfway point. As a reminder, the Emax is the size of the effect at its maximum, as opposed to the concentration needed. Regarding `Oc1cc(N2CCN(C3CCN(c4ccc(F)c5cccnc45)CC3)CC2)c2ncccc2c1` [Metabolite M21, 8-{4-[1-(5-fluoroquinolin-8-yl)piperidin-4-yl]piperazin-1-yl}quinolin-6-ol trihydrochloride], on human 5-HT1A receptor [1], the Ki is 0.47 nM. Also, the 50% effective concentration (EC50) on human 5-HT1A receptor [2] (decrease of forskolin-induced cAMP, read-out: EC50 value for in vitro agonist activity) was found to be 0.39 nM. Further, on human 5-HT1A receptor [2] (percent of full agonist response (8-OH-DPAT=100%)), the maximal effect (Emax) was 92%.
Consider `COc1cc(N2CCN(C3CCN(c4ccc(F)c5cccnc45)CC3)CC2)c2ncccc2c1` [[^14C]COMPOUND I, [piperazine-^14C(U)]-5-fluoro-8-(4-(4-(6-methoxyquinolin-8-yl)piperazin-1-yl)piperidin-1-yl)quinoline trisuccinate], for which the “average turnover to metabolites” value in data set [3] (both, human, 1 h) is 13%; in data set [3] (both, human, 4 h), 18%; in data set [3] (dog, 1 h), 8%; in data set [3] (dog, 4 h) it was 12%; in data set [3] (male, rat, 1 h), 32%; in data set [3] (male, rat, 4 h), 38%.
